Assay results reported in PMC6370856, “Peptidyl prolyl cis/trans isomerase activity on the cell surface correlates with extracellular matrix development” (Communications Biology, 2019).

Experiments:
Jurkat cells = assay: PPIase activity on cell surface (PACS), Jurkat cells; assay type: cell-based; conditions: 1 µL medium with 200 µM inhibitor added to 19 µL
Method: (§1) To investigate PACS, we need to distinguish between different families of PPIase. […] PACS must also be distinguished from that in culture medium. Adhesive cells such as fibroblasts (human dermal fibroblasts isolated from neonatal foreskin (HDFn)) or mesenchymal stromal cells (MSCs) were washed by simple pipetting and pooling. Washing of suspension cells such as T cells was performed by centrifugation. […] To minimize the potential damage to cells, one washing step was used in the PACS measurement for suspension cells (Supplementary Fig. 10).
(§2) The assay was performed in a cold room. If there was no additional description, the assays were performed in CO2-independent medium supplemented with 10% (v/v) h.i. FBS (medium-h.i. FBS) and 2mM L-glutamine. […] FBS to a final concentration of 120 µg mL^−1 (two times substrate stock). α-Chymotrypsin was prepared freshly. Fifteen micrograms of α-chymotrypsin was dissolved in 2 mL medium-h.i. FBS, and the pH was adjusted with 10 µL 1 M NaOH.
One or more flasks of cells (5 mL per flask, depending on the maximum culture density of each cell line) were harvested by centrifuging at 1000 rpm for 3 min. To remove PPIases from the supernatant originating from the culture, cells were washed one time with 2 mL CO2-independent medium and were resuspended in 1.6 mL of CO2-independent medium with substrate. The cells were centrifuged again, and then 800 µL of the supernatant was taken. The residual volume containing cells was suspended. Nineteen microliters of the cells or supernatant was pipetted to a non-binding 96-well microplate to measure PPIase activity. Four different conditions were performed. […] The plate was kept for 5 min without agitation. The activity measurements were triggered by adding 20 µL of α-chymotrypsin at time 0 min, followed by 1.5 min agitation, and the reaction was stopped after 2 min with 80 µL 20% acetic acid, followed by 15 rounds of up and down pipetting mixing. […]
For the Jurkat cell number activity measurements, two flasks of cells (10 mL) were harvested, washed, and suspended in 600 µL of CO2-independent medium with substrate. The cells were centrifuged again, and then 300 µL supernatant was taken to measure the activity. The residual volume with cells was suspended and used to measure activity (cell density: 2.4 × 10^7 cells/mL). Four different conditions were performed: 20 µL supernatant or cell with 0 µL substrate, 10 µL supernatant or cell with 10 µL substrate, 5 µL supernatant or cell with 15 µL substrate, and 2.5 µL supernatant or cell with 17.5 µL substrate. […]

[1] = system: human dermal fibroblasts isolated from neonatal foreskin (HDFn); assay: PPIase activity on cell surface (PACS), HDFn; assay type: cell-based; conditions: inhibitor final concentration of 10 µM
Method: To investigate PACS, we need to distinguish between different families of PPIase. […] PACS must also be distinguished from that in culture medium. Adhesive cells such as fibroblasts (human dermal fibroblasts isolated from neonatal foreskin (HDFn)) or mesenchymal stromal cells (MSCs) were washed by simple pipetting and pooling. Washing of suspension cells such as T cells was performed by centrifugation. After the first washing step, no change in PPIase activity in supernatant could be detected through the following washing steps. To minimize the potential damage to cells, one washing step was used in the PACS measurement for suspension cells (Supplementary Fig. 10). […] Adding SLF further reduced the isomerase activity in samples both with and without cells due to the FKBP in the fetal bovine serum (FBS)-containing medium. After the treatment of CsA/SLF, these was no difference in the substrate cis/trans isomerization rate in all the samples. Therefore, neither the cells nor the FBS in the culture medium interferes with the protease-coupled PPIase assay (Fig. 4b).
as §2, with “NaOH. Five millimole CsA, SLF, and CsA/SLF mixture were prepared in DMSO.” for “NaOH.”
(§3) The cells (10,000 per well) were cultured in 96-well plates for 24 h. The supernatant was removed by turning the plate upside down. The cells were washed three times for 5 min under gentle shaking using supplemented CO2-independent medium (100 µL/well), and the supernatant was removed as before. The cells were kept in supplemented CO2-independent medium (100 µL/well) for measuring PPIase activity.
(§4) The medium was removed with a pipette. […] The mixture was kept for 5 min without agitation, followed by 1.5 min of agitation (linear shaking by hand with a speed of around 200 rounds/min). Twenty microliters were taken from the supernatant and measured along with the cell fraction (the remaining 20 µL) for PPIase activity. The activity measurements were triggered by adding 20 µL α-chymotrypsin at time 0 min, followed by 1.5 min of agitation, and the reaction was stopped at time 2 min with 80 µL of 20% acetic acid followed by 15 rounds of up and down pipetting mixing. Four independent experiments were performed on the same day.

[2] = system: PPIase activity in culture medium (FKBP in the FBS-containing medium); assay: PPIase activity in CO2-independent medium with or without FBS (control); assay type: biochemical, bovine; conditions: for Supernatant PPIase activity k, Exp. 1 / Supernatant PPIase activity k, Exp. 2 / Supernatant PPIase activity k, Exp. 3 / Supernatant PPIase activity k, Mean: no cells
Method: as §1, §2

[3] = system: human mesenchymal stromal cells (MSCs); assay: PPIase activity on cell surface (PACS), MSCs; assay type: cell-based; conditions: MSC, inhibitor final concentration of 10 µM
Method: as §1, §2, §3, §4

Supernatant PPIase activity k, Exp. 1 ([2]; Medium with FBS): 0.00201 s⁻¹ | Supernatant PPIase activity k, Exp. 2 ([2]; Medium with FBS): 0.00203 s⁻¹ | Supernatant PPIase activity k, Exp. 3 ([2]; Medium with FBS): 0.00197 s⁻¹ | Supernatant PPIase activity k, Mean ([2]; Medium with FBS): 0.002003 s⁻¹ | Supernatant PPIase activity k, Exp. 1 ([2]; Medium without FBS): 0.00194 s⁻¹ | Supernatant PPIase activity k, Exp. 2 ([2]; Medium without FBS): 0.00197 s⁻¹ | Supernatant PPIase activity k, Exp. 3 ([2]; Medium without FBS): 0.00199 s⁻¹ | Supernatant PPIase activity k, Mean ([2]; Medium without FBS): 0.001967 s⁻¹ | inhibition of residual PPIase activity in the supernatant ([2]; supernatant / FBS-containing culture medium (Fig. 4b, first right)): completely inhibited
Structure (SMILES): CCC(C)(C)C(=O)C(=O)N1CCCC[C@H]1C(=O)O[C@H](CCc1ccc(OC)c(OC)c1)c1cccc(OCC(=O)O)c1 [SLF]
Supernatant PPIase activity k, Exp. 1 (Jurkat cells; supernatant): 0.00208 s⁻¹ | Supernatant PPIase activity k, Exp. 2 (Jurkat cells; supernatant): 0.00205 s⁻¹ | Supernatant PPIase activity k, Exp. 3 (Jurkat cells; supernatant): 0.00194 s⁻¹ | Supernatant PPIase activity k, Exp. 4 (Jurkat cells; supernatant): 0.00211 s⁻¹ | Supernatant PPIase activity k, Exp. 5 (Jurkat cells; supernatant): 0.00203 s⁻¹ | Supernatant PPIase activity k, Exp. 6 (Jurkat cells; supernatant): 0.00196 s⁻¹ | Supernatant PPIase activity k, Mean (Jurkat cells; supernatant): 0.002028 s⁻¹ | cell surface PPIase activity k, Cell (1st replicate column) (Jurkat cells; with cells): 0.0033 s⁻¹ | cell surface PPIase activity k, Cell (2nd replicate column) (Jurkat cells; with cells): 0.00321 s⁻¹ | cell surface PPIase activity k, Cell (3rd replicate column) (Jurkat cells; with cells): 0.00336 s⁻¹ | cell surface PPIase activity k, Cell (4th replicate column) (Jurkat cells; with cells): 0.00308 s⁻¹ | cell surface PPIase activity k, Cell (5th replicate column) (Jurkat cells; with cells): 0.00293 s⁻¹ | cell surface PPIase activity k, Cell (6th replicate column) (Jurkat cells; with cells): 0.00306 s⁻¹ | cell surface PPIase activity k, Mean (Jurkat cells; with cells): 0.003176 s⁻¹ | Supernatant PPIase activity k, Exp. 1 ([1]; supernatant): 0.00186 s⁻¹ | Supernatant PPIase activity k, Exp. 2 ([1]; supernatant): 0.00236 s⁻¹ | Supernatant PPIase activity k, Exp. 3 ([1]; supernatant): 0.00238 s⁻¹ | Supernatant PPIase activity k, Mean ([1]; supernatant): 0.0022 s⁻¹ | cell surface PPIase activity k, Exp. 2 ([1]; with cells): 0.0027 s⁻¹ | cell surface PPIase activity k, Exp. 3 ([1]; with cells): 0.00286 s⁻¹ | cell surface PPIase activity k, Exp. 4 ([1]; with cells): 0.00333 s⁻¹ | cell surface PPIase activity k, Mean ([1]; with cells): 0.002963 s⁻¹ | Supernatant PPIase activity k, Exp. 1 ([3]; supernatant): 0.0025 s⁻¹ | Supernatant PPIase activity k, Exp. 2 ([3]; supernatant): 0.00238 s⁻¹ | Supernatant PPIase activity k, Exp. 3 ([3]; supernatant): 0.00221 s⁻¹ | Supernatant PPIase activity k, Exp. 4 ([3]; supernatant): 0.00211 s⁻¹ | Supernatant PPIase activity k, Mean ([3]; supernatant): 0.0023 s⁻¹ | cell surface PPIase activity k, Exp. 2 ([3]; with cells): 0.0036 s⁻¹ | cell surface PPIase activity k, Exp. 3 ([3]; with cells): 0.00293 s⁻¹ | cell surface PPIase activity k, Exp. 4 ([3]; with cells): 0.00339 s⁻¹ | cell surface PPIase activity k, Mean ([3]; with cells): 0.003307 s⁻¹
